In article PMC3183289 (Bioorganic & medicinal chemistry, 2011):
Where two headings read alike, the source gives them in different places. Blank lines part the entries; values can stand above or below the compound they belong to.

How the values were obtained:
mPGES-1 = settings: cited from earlier work
recombinant mPGES-1 = molecular target: T1, recombinant mPGES-1 (Homo sapiens, UniProt O14684); assay: in vitro mPGES-1 enzyme activity assay; format: biochemical; settings: −RTln(Kd) ≈ −RTln(IC50), from measured IC50
T1 sequence (O14684 1-152): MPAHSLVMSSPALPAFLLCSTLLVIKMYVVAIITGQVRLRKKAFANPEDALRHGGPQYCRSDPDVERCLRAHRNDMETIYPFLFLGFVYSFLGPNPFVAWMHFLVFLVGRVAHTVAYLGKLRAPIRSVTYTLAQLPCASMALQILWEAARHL

Compound: CSc1ccc(/C=C2/C(C)=C(CC(=O)O)c3cc(F)ccc32)cc1
IC50 (mPGES-1): 80 µM

ΔGbind^Exp (recombinant mPGES-1): -7.44 kcal/mol
Compound: COCCN(c1ccc(/C=C2\S/C(=N\c3ccccc3)N(C(C)C(=O)O)C2=O)cc1)c1ccccc1OC (stereo not drawn) [Compound 3]

Compound: CCCCC/C=C\C\C=C/C=C/C=C/[C@@H](SC[C@H](NC(=O)CC[C@H](N)C(=O)O)C(=O)NCC(=O)O)[C@@H](O)CCCC(=O)O [Leukotriene C4]
IC50 (mPGES-1; probably by competing with glutathione): micromolar
